# Results from PubChem BioAssay (NCI).
#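 Protocol summary: plate cells (96-well), add compound at 5 concentrations, incubate 48 h, interpolate endpoints linearly. Abbreviation: GI50, concentration required for 50% inhibition of growth. TGI: concentration producing complete growth inhibition.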
# Tested on: MDA-MB-468 breast
# Assay: NCI-60 cell line screen, 48 h
Compound,GI50 [nM],TGI [µM]
CCCCCCCCO/N=C\c1c2c(O)c3c(O)c(C)c4c(c3c1O)C(=O)C(C)(O/C=C\C(OC)C(C)C(OC(C)=O)C(C)C(O)C(C)C(O)C(C)/C=C\C=C(\C)C(=O)N2)O4 (stereo not given),1370,5.11
O=S(=O)(NCCNc1cc(-c2cn(-c3ccccc3)nc2-c2cccc(O)c2)ccn1)c1ccc(F)cc1,1880,5.33
Cc1ccc(-c2nc3nc(-c4ccc(Cl)cc4)nc(N4CCCNCC4)c3o2)cc1,1780,3.42
O=C(/C=C/c1ccc2c(c1)OCO2)c1ccccc1,13900,28
Cc1c(N)nc([C@H](CC(N)=O)NC[C@H](N)C(N)=O)nc1C(=O)N[C@H](C(=O)N[C@H](C)[C@@H](O)[C@H](C)C(=O)N[C@H](C(=O)NCCc1nc(-c2nc(C(=O)NCCC[S+](C)C)cs2)cs1)[C@@H](C)O)C(OC1OC(CO)C(O)C(O)C1OC1OC(CO)C(O)C(OC(N)=O)C1O)c1cnc[nH]1 (stereo not given in full),2480,15.3
O=C(CSc1nc2sc3c(c2c(=O)n1-c1ccccc1)CCCCC3)N/N=C/c1ccc(F)cc1,2350,8.02
CC(=O)O[C@H]1C(=O)[C@@]2(C)[C@H]([C@H](OC(=O)c3ccccc3)[C@]3(O)C[C@H](OC(=O)[C@H](OC(=O)CCC(=O)OC4CCC(S/N=C(N)/N=C(\N)N(C)C)CC4)[C@@H](NC(=O)c4ccccc4)c4ccccc4)C(C)=C1C3(C)C)[C@]1(OC(C)=O)CO[C@@H]1C[C@@H]2O (stereo not given in full),7.32,0.0433
O=[N+]([O-])c1ccccc1/C=C/C=C1c2ccccc2-c2ccccc21,54600,> 100
C=C1C(=O)O[C@H]2[C@H]1CC/C(COC(=O)N[C@@H](Cc1c[nH]c3ccccc13)C(=O)OC)=C\CC[C@@]1(C)O[C@@H]21,1230,3.05
C[C@]12CC[C@H]3[C@@H](CC=C4C[C@@H](O)CC[C@@]43C)[C@@H]1C/C(=C\c1cccc(OCCCn3ccnc3)c1)[C@@H]2O,7430,31.3
CCC[C@H](Nc1nc(-c2ccc(NC(=O)NCC)c(OC)c2)ncc1C)c1cccnc1,24.6,0.0709
O=C1CN2CCC1C/C2=C\c1ccnc2c(Cl)cccc12 (stereo not given),14800,57.9
O=c1[nH]cnc2c1nnn2[C@@H]1O[C@H](CO)[C@@H](O)[C@H]1O,1540,24.5
COc1cc(C(=O)O)ccc1NC(=O)[C@@H]1N[C@@H](CC(C)(C)C)[C@](C#N)(c2ccc(Cl)cc2F)[C@H]1c1cccc(Cl)c1F,5120,16.2
CCOC(=O)c1ccc2[nH]c(Cc3[nH]c4ccc(C(=O)OCC)cc4c3C)c(C)c2c1,5590,28.9
Cc1nn(-c2ccccc2)cc1/C=N/Nc1nc(Nc2ccccc2)nc(Nc2ccc(S(N)(=O)=O)cc2)n1,1520,3.27
CCN(CC)CCCN1C(=O)c2c(c(C)c3c(oc4cc(O)ccc43)c2C)C1=O,1570,3.13
CCN(CC)CCCC(C)N/C(c1cccc(OC)c1)=c1\c(=O)[nH]n(-c2c3ccccc3nc3ccccc23)c(=O)\c1=C(/NC(C)CCCN(CC)CC)c1cccc(OC)c1 (stereo not given),1180,3.09
Fc1ccc(Nc2ccc3cc(OCCCN4CCOCC4)ccc3n2)cc1F,3350,19.3
CS(=O)(=O)Nc1cc(-c2ccc3ncc(C#N)c(NCc4ccccc4)c3c2)cnc1Cl,81.9,0.896
Nc1nc(N)c2c(n1)NC(c1ccc(C(F)(F)F)cc1)CC(c1ccc(Nc3nc(NCCO)nc(Nc4ccc(Cl)cc4)n3)cc1)=N2 (stereo not given),1580,3.21
O=C(Nc1nc(-c2ccc(Cl)cc2)cs1)c1ccc(O)c(O)c1,3770,25.5
COc1cc(N)ccc1Nc1c2ccccc2nc2ccccc12,11800,28.8

Compound,GI50 [nM],TGI [µM]
COc1ccc(C(=O)c2ccc(OC)cc2OC)cc1,1210,3.89
C=C1C(=O)O[C@H]2[C@H]1CC/C(Cn1cc(Cn3ccc4cc(Cl)ccc43)nn1)=C\CC[C@@]1(C)O[C@@H]21,908,2.55
Cc1cc(Nc2ncc(Cl)c(Nc3ccccc3S(=O)(=O)C(C)C)n2)c(OC(C)C)cc1C1CCNCC1,1410,3.14
C[C@]12CC[C@H](O)C[C@@H]1CC[C@@H]1[C@@H]2CC[C@@]2(C)[C@H]1CC[C@@H]2[C@](C)(O)CCc1ccc(F)cc1,2440,28.2
O=C1CC(N2C(=O)/C(=C/C(Cl)=C\c3ccc([N+](=O)[O-])cc3)SC2=S)C(=O)N1c1ccc(Cl)cc1 (stereo not given),1330,3.1
C/C(=C\c1ccn(-c2ccc(N)cc2C(F)(F)F)n1)[C@@H]1C[C@@H]2O[C@]2(C)CCC[C@H](C)[C@H](O)[C@@H](C)C(=O)C(C)(C)[C@@H](O)CC(=O)O1,289,0.873
C[C@@H](Oc1cc(-c2cnn(C3CC4(CCNCC4)C3)c2)cnc1N)c1c(F)ccc(Cl)c1Cl,562,2.12
CN1CCN(Cc2ccc(NC(=O)c3[nH]ncc3Nc3ccnc4ccsc34)cc2)CC1,2120,5.54
CN(C)c1ccc2[nH]c(O)c(C=Nc3ccc(S(N)(=O)=O)cc3)c2c1,> 25000,> 25
Nc1c(C(=O)Nc2cccc3ccccc23)sc2nc3c(cc12)CCCCC3,231,> 50
CN1CCN(CCCOc2ccc3ncnc(Nc4ccc(Oc5cccc(C(F)(F)F)c5)c(Cl)c4)c3c2)CC1,1070,2.87
Cc1cc(Nc2nc(N3CCOCC3)nc3ccccc23)n[nH]1,4360,38.2
O=C(Nc1cccc(-c2nc3ccccc3[nH]2)c1)c1cccc(NC(=O)c2ccco2)c1,1740,3.99
CC1=C([Se]CC(OC(=O)[C@@H](CSSC(C)(C)C)NC(=O)C(C)(C)C)C(=O)NCCCCCC(=O)OCc2ccccc2)C(=O)c2ccccc2C1=O (stereo not given in full),2190,4.35
N#C/C(=C\c1ccc(Cl)cc1)n1nnc2cc(F)c(F)cc21,1470,3.23
Cc1c(N(C(=O)c2cc(-c3cc(Cl)ccc3C(=O)N3Cc4ccccc4C[C@H]3CN3CCOCC3)n(C)c2C)c2ccc(O)cc2)cc(C#N)n1C,4700,25.2
O=C1Nc2cc(OC(F)(F)F)ccc2Oc2ccc(-c3ccnc(N4CC[C@H](O)C4)c3)cc21,12.9,0.368
Cc1cc(S(=O)(=O)/N=C(\N)n2nc(C)c(C)c2C)c(SCc2ccccc2)cc1Cl,12100,92.4
CNC(=O)c1ccc(Nc2nc(OC3CCCC3)c3c(-c4ccc5nc(C)oc5c4)c[nH]c3n2)c(OC)c1,424,27.6
C=C1C(=O)O[C@H]2[C@H]1CC/C(COC(=O)NCCc1c[nH]c3ccccc13)=C\CC[C@@]1(C)O[C@@H]21,1380,4.32
Cc1cccc(Oc2ccc(Nc3ncnc4ccc(NC(=O)CN5CCN(C)CC5)cc34)cc2Cl)c1,448,2.07
O=C(/C=C/C12c3ccccc3C(c3ccccc31)C1C(=O)NC(=O)C12)c1ccco1 (stereo not given),2200,4.93
